Test results published in patent publication US8933224B2, “Triazine derivatives” (Pfizer Inc., priority 2013, dated 2015).

Tests used:
rat PDE10 enzyme = rat PDE10 enzyme (Rattus norvegicus (Rat), UniProt Q9QYJ6); assay: PDE10 scintillation proximity assay (SPA), inhibition of rat PDE10 enzyme activity; format: biochemical; conditions: geometric mean of 2-4 determinations unless otherwise indicated (b: ≧5 determinations; c: single determination)
Outline: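 SPA with fixed recombinant PDE10 (Sf21-expressed, Ni-NTA and Mono Q purified) converting ~20% of 20 nM ³H-cAMP in 50 mM TRIS pH 7.5, 1.3 mM MgCl2, 0.01% Brij, across an inhibitor range.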

[1] = target: human recombinant PDE10 enzyme (PDE10A) (Homo sapiens, UniProt Q9Y233); assay: PDE10 scintillation proximity assay (SPA), inhibition of human recombinant PDE10 enzyme activity; format: biochemical; conditions: geometric mean of 2-4 determinations unless otherwise indicated (b: ≧5 determinations; c: single determination)
Protocol: PDE10 activity was measured using a scintillation assay (SPA-based method) similar to that previously described by Seeger, T. F. et al., Brain Research 985 (2003) 113-126. The compounds' relative activity as PDE10 inhibitors was investigated by assaying a fixed amount of enzyme in the presence of the test compound and low substrate concentration (cAMP) such that an IC50 could be determined. […] The assay is performed in a 384-well format with 50 μL assay buffer (50 mM TRIS pH 7.5; 1.3 mM MgCl2; 0.01% Brij) containing enough PDE10 to convert ˜20% of 20 nM ^3H-cAMP, and a range of inhibitors. Reactions are incubated for 30 minutes at 25° C. The addition of 20 μL of 8 mg/ml yttrium silicate SPA beads (PerkinElmer) stops the reaction. The plates are sealed (TopSeal, PerkinElmer) and the beads are allowed to settle for 8 hrs, after which they are read on the Trilux Microbeta overnight. ^1Rat enzyme preparation:^2Human enzyme preparation:
Human PDE10A coding sequence (amino acids 21 to 797 from the sequence with accession number NP_001124162.1) was synthesized using codon optimization for insect expression and cloned into the baculovirus expression vector pFastBac (Invitrogen) engineered to include a N-terminal His6 affinity tag to aid in purification as described in Seeger, T. F. et al., Brain Research 985 (2003) 113-126. The recombinant Bacmid was isolated and used to transfect sf9 insect cells to generate a viral stock. To generate cell paste for purification, sf21 cells were infected with the virus stock and cells were harvested 72 hours after infection as described in Seeger, T. F. et al., Brain Research 985 (2003) 113-126. Insect cell paste was lysed and after centrifugation, the supernatant was chromatographed on Ni-NTA agarose (Qiagen) as described in Seeger, T. F. et al., Brain Research 985 (2003) 113-126. Ni-NTA agarose eluting fractions containing PDE10A were chromatographed on Superdex 200 (GE Healthcare Life Sciences) in 50 mM Tris HCl pH 7.5, 150 mM NaCl, 1 mM EDTA, 10% glycerol, 2 mM TCEP, 1.5 mM benzamidine, EDTA-free protease inhibitors (Roche), and 5 μM E-64.

Sequence of rat PDE10 enzyme (Q9QYJ6 24-794): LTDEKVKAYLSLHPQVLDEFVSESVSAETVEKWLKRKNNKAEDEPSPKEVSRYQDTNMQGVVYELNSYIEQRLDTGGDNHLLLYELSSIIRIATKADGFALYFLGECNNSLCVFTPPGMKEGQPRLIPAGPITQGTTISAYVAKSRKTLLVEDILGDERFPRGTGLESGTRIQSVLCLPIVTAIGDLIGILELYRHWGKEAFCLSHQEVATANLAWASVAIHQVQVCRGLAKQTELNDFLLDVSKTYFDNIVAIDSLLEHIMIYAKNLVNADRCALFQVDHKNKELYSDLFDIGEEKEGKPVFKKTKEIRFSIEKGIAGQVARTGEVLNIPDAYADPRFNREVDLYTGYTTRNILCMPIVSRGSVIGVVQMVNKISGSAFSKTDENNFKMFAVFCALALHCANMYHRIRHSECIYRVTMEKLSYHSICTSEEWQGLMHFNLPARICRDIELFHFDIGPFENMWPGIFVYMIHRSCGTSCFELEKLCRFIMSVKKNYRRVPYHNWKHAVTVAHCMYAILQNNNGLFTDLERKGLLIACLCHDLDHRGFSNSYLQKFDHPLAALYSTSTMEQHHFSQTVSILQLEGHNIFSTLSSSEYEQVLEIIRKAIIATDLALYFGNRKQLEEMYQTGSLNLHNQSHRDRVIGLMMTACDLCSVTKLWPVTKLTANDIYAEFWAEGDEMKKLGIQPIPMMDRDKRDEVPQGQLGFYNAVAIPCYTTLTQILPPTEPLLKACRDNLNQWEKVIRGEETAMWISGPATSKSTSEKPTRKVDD

Row | Compound | IC50 (rat PDE10 enzyme) | IC50 [1]
1 | COc1ccc2c(n1)CN(c1ncnn3c(C)nc([C@@H]4CCOC4)c13)CC2 [Example 19, 2-methoxy-7-{7-methyl-5-[(3S)-tetrahydrofuran-3-yl]imidazo[5,1-f][1,2,4]triazin-4-yl}-5,6,7,8-tetrahydro-1,7-naphthyridine] | 2.04 nM | 2.75 nM
2 | Cc1nc2c(s1)CN(c1ncnn3c(C)nc([C@H]4CCOC4)c13)CC2 [Example 23, 7-methyl-4-(2-methyl-6,7-dihydro[1,3]thiazolo[5,4-c]pyridin-5(4H)-yl)-5-[(3R)-tetrahydrofuran-3-yl]imidazo[5,1-f][1,2,4]triazine] | < 5.55 nM | 2.53 nM
3 | COc1cnc2c(c1)CN(c1ncnn3c(C)nc(-c4ccccc4F)c13)CC2 [Example 25, 6-[5-(2-fluorophenyl)-7-methylimidazo[5,1-f][1,2,4]triazin-4-yl]-3-methoxy-5,6,7,8-tetrahydro-1,6-naphthyridine] | 1.12 nM | 1.41 nM
4 | COc1ccc2c(n1)CCN(c1ncnn3c(C)nc([C@@H]4CCOC4)c13)C2 [Example 27, 2-methoxy-6-{7-methyl-5-[(3S)-tetrahydrofuran-3-yl]imidazo[5,1-f][1,2,4]triazin-4-yl}-5,6,7,8-tetrahydro-1,6-naphthyridine] | 0.617 nM | 0.891 nM
5 | Cc1nc(C)c2c(n1)CCN(c1ncnn3c(C)nc([C@@H]4CCOC4)c13)C2 [Example 38, 2,4-dimethyl-6-{7-methyl-5-[(3S)-tetrahydrofuran-3-yl]imidazo[5,1-f][1,2,4]triazin-4-yl}-5,6,7,8-tetrahydropyrido[4,3-d]pyrimidine] | 1.78 nM | 2.92 nM
6 | Cc1nc([C@@H]2CCOC2)c2c(N3CCc4ncccc4C3)ncnn12 [Example 47, 6-{7-methyl-5-[(3S)-tetrahydrofuran-3-yl]imidazo[5,1-f][1,2,4]triazin-4-yl}-5,6,7,8-tetrahydro-1,6-naphthyridine] | 0.758 nM | 1.42 nM

More lines, now with the values ahead:

Row | IC50 (rat PDE10 enzyme) | IC50 [1] | Compound
7 | 0.51 nM | 0.876 nM | Cc1nc(C2CCOCC2)c2c(N3CCc4c(c(C(C)C)nn4C)C3)ncnn12 [Example 21, 4-(3-isopropyl-1-methyl-1,4,6,7-tetrahydro-5H-pyrazolo[4,3-c]pyridin-5-yl)-7-methyl-5-(tetrahydro-2H-pyran-4-yl)imidazo[5,1-f][1,2,4]triazine]
8 | 0.236 nM | 0.582 nM | COc1nccc2c1CN(c1ncnn3c(C)nc([C@@H]4CCOC4)c13)CC2 [Example 28, 8-methoxy-2-{7-methyl-5-[(3S)-tetrahydrofuran-3-yl]imidazo[5,1-f][1,2,4]triazin-4-yl}-1,2,3,4-tetrahydro-2,7-naphthyridine]
9 | 0.307 nM | 0.384 nM | COc1cnc2c(c1)CN(c1ncnn3c(C)nc([C@@H]4CCOC4)c13)CC2 [Example 29, 3-methoxy-6-{7-methyl-5-[(3S)-tetrahydrofuran-3-yl]imidazo[5,1-f][1,2,4]triazin-4-yl}-5,6,7,8-tetrahydro-1,6-naphthyridine]
10 | 0.123 nM | 0.275 nM | CCOc1nc(C)nc2c1CN(c1ncnn3c(C)nc([C@@H]4CCOC4)c13)CC2 [Example 35, 4-ethoxy-2-methyl-6-{7-methyl-5-[(3S)-tetrahydrofuran-3-yl]imidazo[5,1-f][1,2,4]triazin-4-yl}-5,6,7,8-tetrahydropyrido[4,3-d]pyrimidine]
11 | 0.442 nM | 0.98 nM | Cc1nc(C2CC2)nc2c1CN(c1ncnn3c(C)nc(-c4ccccc4F)c13)CC2 [Example 40, 2-cyclopropyl-6-[5-(2-fluorophenyl)-7-methylimidazo[5,1-f][1,2,4]triazin-4-yl]-4-methyl-5,6,7,8-tetrahydropyrido[4,3-d]pyrimidine]
12 | 0.102 nM | 0.11 nM | Cc1nc([C@@H]2CCOC2)c2c(N3CCc4nn(C)c(C5CC5)c4C3)ncnn12 [Example 44, 4-(3-cyclopropyl-2-methyl-2,4,6,7-tetrahydro-5H-pyrazolo[4,3-c]pyridin-5-yl)-7-methyl-5-[(3S)-tetrahydrofuran-3-yl]imidazo[5,1-f][1,2,4]triazine]
